Assay results from patent US7645781B2, “N-aryl-2-oxazolidinone-5-carboxamides and their derivatives” (Pfizer Inc, priority 2002, dated 2010).
Values after ≈ are worked out from the molar mass of the structure shown. Read-outs that look alike come from different tables or passages of the source.

System: Staphylococcus aureus (SAUR 9213)
Experiment: MIC by standard agar dilution method
Format: cell-based
Settings: Mueller Hinton agar, incubated overnight at 35° C.
Description: The antibacterial agents of this invention have useful activity against a variety of organisms. The in vitro activity of compounds of this invention can be assessed by standard testing procedures such as the determination of minimum inhibitory concentration (MIC) by agar dilution as described in “Approved Standard. Methods for Dilution Antimicrobial Susceptibility Tests for Bacteria That Grow Aerobically”, 3rd. ed., published 1993 by the National Committee for Clinical Laboratory Standards, Villanova, Pa., USA. The in vitro MICs of test compounds are determined by a standard agar dilution method. A stock drug solution of each analog is prepared in the preferred solvent, usually DMSO:H2O (1:3). Serial 2-fold dilutions of each sample are made using 1.0 ml aliquots of sterile distilled water. To each 1.0 ml aliquot of drug is added 9 ml of molten Mueller Hinton agar medium. The drug-supplemented agar is mixed, poured into 15×100 mm petri dishes, and allowed to solidify and dry prior to inoculation. Vials of each of the test organisms are maintained frozen in the vapor phase of a liquid nitrogen freezer. Test cultures are grown overnight at 35° C. on the medium appropriate for the organism. Colonies are harvested with a sterile swab, and cell suspensions are prepared in Trypticase Soy broth (TSB) to equal the turbidity of a 0.5 McFarland standard. A 1:20 dilution of each suspension is made in TSB. The plates containing the drug supplemented agar are inoculated with a 0.001 ml drop of the cell suspension using a Steers replicator, yielding approximately 10^4 to 10^5 cells per spot. The plates are incubated overnight at 35° C. Following incubation the Minimum Inhibitory Concentration (MIC μg/ml), the lowest concentration of drug that inhibits visible growth of the organism, is read and recorded.

Structure (SMILES)	MIC	MIC (read-out: MIC)
N=S1(=O)CCC(c2ccc(N3C[C@H](C(N)=O)OC3=O)cc2F)CC1 (stereo in doubt) [Example 56, (5R)-3-[4-(cis-1-Imino-1-oxido-1,1,3,4,5,6-hexahydro-2H-thiopyran-4-yl)-3-fluorophenyl]-2-oxo-5-oxazolidinecarboxamide]	4 µg/mL (≈ 11.3 µM)	
CCNC(=O)[C@H]1CN(c2ccc(N3C=CC(=O)CC3)c(F)c2)C(=O)O1 [Example 71, (5R)-N-Ethyl-3-[4-(4-oxo-3,4-dihydro-1(2H)-pyridinyl)-3-fluorophenyl]-2-oxo-5-oxazolidinecarboxamide]		4 µg/mL (≈ 11.5 µM)
CCn1c(=O)oc2cc(N3C[C@H](C(=O)NC)OC3=O)cc(F)c21 [Example 90, (5R)-3-(3-Ethyl-4-fluoro-2-oxo-2,3-dihydro-6-benzoxazolyl)-N-methyl-2-oxo-5-oxazolidinecarboxamide]		4 µg/mL (≈ 12.4 µM)
CN1C(=O)COc2cc(N3C[C@H](C(N)=O)OC3=O)ccc21 [Example 59, (5R)-3-(3,4-Dihydro-4-methyl-3-oxo-2H-1,4-benzoxazin-7-yl) -2-oxo-5-oxazolidinecarboxamide]		2 µg/mL (≈ 6.87 µM)
COC(=O)N1CC(C)(c2c(F)cc(N3C[C@H](C(N)=O)OC3=O)cc2F)C1 [Example 57, (5R)-(−)-3-[3,5-Difluoro-4-(1-methoxycarbonyl-3-methylazetidin-3-yl)phenyl]-2-oxo-5-oxazolidinecarboxamide]		8 µg/mL (≈ 21.7 µM)
CNC(=O)[C@H]1CN(c2ccc3c(c2)OC(F)(F)C(=O)N3C)C(=O)O1 [Example 81, (5R)-N-Methyl-3-(2,2-difluoro-4-methyl-3,4-dihydro-3-oxo-2H-1,4-benzoxazin-7-yl)-2-oxo-5-oxazolidinecarboxamide]		4 µg/mL (≈ 11.7 µM)
CN1C(=O)CSc2cc(N3C[C@H](C(N)=O)OC3=O)ccc21 [Example 62, (5R)-3-(3,4-Dihydro-4-methyl-3-oxo-2H-1,4-benzothiazin-7-yl)-2-oxo-5-oxazolidinecarboxamide]		4 µg/mL (≈ 13 µM)
O=C1C=CN(c2ccc(N3C[C@H](C(=O)NCCF)OC3=O)cc2)CC1 [Example 75, (5R)-N-(2-Fluoroethyl)-3-[4-(4-oxo-3,4-dihydro-1(2H)-pyridinyl)phenyl]-2-oxo-5-oxazolidinecarboxamide]		8 µg/mL (≈ 23 µM)
NC(=O)[C@H]1CN(c2cc(F)c([C@H]3CC[S@+]([O-])CC3)c(F)c2)C(=O)O1 [Example 47, (5R)-(−)-3-[3,5-Difluoro-4-(trans-tetrahydro-1-oxido-2H-thiopyran-4-yl)phenyl]-2-oxo-5-oxazolidinecarboxamide]		4 µg/mL (≈ 11.2 µM)
NC(=O)[C@H]1CN(c2ccc(N3C=CC(=O)CC3)cc2)C(=O)O1 [Example 72, (5R)-3-[4-(4-Oxo-3,4-dihydro-1(2H)-pyridinyl)phenyl]-2-oxo-5-oxazolidinecarboxamide]		2 µg/mL (≈ 6.64 µM)
CNC(=O)[C@H]1CN(c2ccc([C@H]3CC[S@+]([O-])CC3)c(F)c2)C(=O)O1 [Example 85, (5R)-N-Methyl-3-[3-fluoro-4-(trans-tetrahydro-1-oxido-2H-thiopyran-4-yl)phenyl]-2-oxo-5-oxazolidinecarboxamide]		2 µg/mL (≈ 5.64 µM)
CNC(=O)[C@H]1CN(c2ccc(N3C=CC(=O)CC3)cc2)C(=O)O1 [Example 73, (5R)-N-Methyl-3-[4-(4-oxo-3,4-dihydro-1(2H)-pyridinyl)phenyl]-2-oxo-5-oxazolidinecarboxamide]		2 µg/mL (≈ 6.34 µM)
CNC(=O)[C@H]1CN(c2cc(F)c3c(c2)oc(=O)n3C(C)C)C(=O)O1 [Example 91, (5R)-3-(4-Fluoro-3-isopropyl-2-oxo-2,3-dihydro-6-benzoxazolyl)-N-methyl-2-oxo-5-oxazolidinecarboxamide]		4 µg/mL (≈ 11.9 µM)
CNC(=O)[C@H]1CN(c2ccc3c(c2)SCC(=O)N3C)C(=O)O1 [Example 63, (5R)-N-Methyl-3-(3,4-dihydro-4-methyl-3-oxo-2H-1,4-benzothiazin-7-yl)-2-oxo-5-oxazolidinecarboxamide]		4 µg/mL (≈ 12.4 µM)
NC(=O)[C@H]1CN(c2cc(F)c(N3C=CS(=O)(=O)CC3)c(F)c2)C(=O)O1 [Example 65, (5R)-3-[4-(1,1-dioxido-2,3-dihydro-4H-1,4-thiazin-4-yl)-3,5-difluorophenyl]-2-oxo-5-oxazolidinecarboxamide]		2 to 4 µg/mL (≈ 5.36 to 10.7 µM)
NC(=O)[C@H]1CN(c2cc(F)c(N3CC=CC3)c(F)c2)C(=O)O1 [Example 66, (5R)-3-[4-(2,5-Dihydro-1H-pyrrol-1-yl)-3,5-difluorophenyl]-2-oxo-5-oxazolidinecarboxamide]		4 µg/mL (≈ 12.9 µM)

Second part, the compound after the results:

MIC	MIC (read-out: MIC)	Structure (SMILES)
	4 µg/mL (≈ 12.4 µM)	CC(C)n1c(=O)oc2cc(N3C[C@H](C(N)=O)OC3=O)cc(F)c21 [Example 88, (5R)-3-(4-Fluoro-3-isopropyl-2-oxo-2,3-dihydro-6-benzoxazolyl)-2-oxo-5-oxazolidinecarboxamide]
	8 µg/mL (≈ 24.3 µM)	CCNC(=O)[C@H]1CN(c2ccc(N3C=CC(=O)CC3)cc2)C(=O)O1 [Example 74, (5R)-N-Ethyl-3-[4-(4-oxo-3,4-dihydro-1(2H)-pyridinyl)phenyl]-2-oxo-5-oxazolidinecarboxamide]
	2 µg/mL (≈ 6.91 µM)	CN1C(=O)CCc2cc(N3C[C@H](C(N)=O)OC3=O)ccc21 [Example 67, (5R)-3-(1-Methyl-2-oxo-1,2,3,4-tetrahydroquinolin-6-yl)-2-oxo-5-oxazolidinecarboxamide]
	2 µg/mL (≈ 6.55 µM)	CNC(=O)[C@H]1CN(c2ccc3c(c2)OCC(=O)N3C)C(=O)O1 [Example 60, (5R)-N-Methyl-3-(3,4-dihydro-4-methyl-3-oxo-2H-1,4-benzoxazin-7-yl)-2-oxo-5-oxazolidinecarboxamide]
	2 µg/mL (≈ 5.37 µM)	CNC(=O)[C@H]1CN(c2cc(F)c([C@H]3CC[S@+]([O-])CC3)c(F)c2)C(=O)O1 [Example 48, (5R)-N-Methyl-3-[3,5-difluoro-4-(trans-tetrahydro-1-oxido-2H-thiopyran-4-yl)phenyl]-2-oxo-5-oxazolidinecarboxamide]
	4 µg/mL (≈ 13.5 µM)	Cn1c(=O)oc2cc(N3C[C@H](C(N)=O)OC3=O)cc(F)c21 [Example 86, (5R)-3-(4-Fluoro-3-methyl-2-oxo-2,3-dihydro-6-benzoxazolyl)-2-oxo-5-oxazolidinecarboxamide]
	2 µg/mL (≈ 6.47 µM)	CCn1c(=O)oc2cc(N3C[C@H](C(N)=O)OC3=O)cc(F)c21 [Example 87, (5R)-3-(3-Ethyl-4-fluoro-2-oxo-2,3-dihydro-6-benzoxazolyl) -2-oxo-5-oxazolidinecarboxamide]
	4 µg/mL (≈ 11.9 µM)	NC(=O)[C@H]1CN(c2cc(F)c(N3C=CC(=O)CC3)c(F)c2)C(=O)O1 [Example 76, (5R)-3-[4-(4-Oxo-3,4-dihydro-1(2H)-pyridinyl)-3,5-difluorophenyl]-2-oxo-5-oxazolidinecarboxamide]
	8 µg/mL (≈ 20.9 µM)	CNC(=O)[C@H]1CN(c2cc(F)c(C3(C)CN(C(=O)OC)C3)c(F)c2)C(=O)O1 [Example 58, (5R)-(−)-N-Methyl-3-[3,5-difluoro-4-(1-methoxycarbonyl-3-methylazetidin-3-yl)phenyl]-2-oxo-5-oxazolidinecarboxamide]
	2 µg/mL (≈ 6.11 µM)	CN1C(=O)C(F)(F)Oc2cc(N3C[C@H](C(N)=O)OC3=O)ccc21 [Example 80, (5R)-3-(2,2-Difluoro-4-methyl-3,4-dihydro-3-oxo-2H-1,4-benzoxazin-7-yl)-2-oxo-5-oxazolidinecarboxamide]
	2 µg/mL (≈ 5.69 µM)	CNC(=O)[C@H]1CN(c2cc(F)c(N3C=CC(=O)CC3)c(F)c2)C(=O)O1 [Example 77, (5R)-N-Methyl-3-[4-(4-oxo-3,4-dihydro-1(2H)-pyridinyl)-3,5-difluorophenyl]-2-oxo-5-oxazolidinecarboxamide]
	8 µg/mL (≈ 23.7 µM)	CN1C(=O)COc2cc(N3C[C@H](C(=O)NCCF)OC3=O)ccc21 [Example 61, (5R)-N-(2-Fluoroethyl)-3-(3,4-dihydro-4-methyl-3-oxo-2H -1,4-benzoxazin-7-yl)-2-oxo-5-oxazolidinecarboxamide]
	2 µg/mL (≈ 6.18 µM)	CN1C(=S)CSc2cc(N3C[C@H](C(N)=O)OC3=O)ccc21 [Example 84, 3-(4-Methyl-3-thioxo-3,4-dihydro-2H-1,4-benzothiazin-7-yl)-2-oxo-5-oxazolidinecarboxamide]
	8 µg/mL (≈ 21.9 µM)	CCNC(=O)[C@H]1CN(c2cc(F)c(N3C=CC(=O)CC3)c(F)c2)C(=O)O1 [Example 78, (5R)-N-Ethyl-3-[4-(4-oxo-3,4-dihydro-1(2H)-pyridinyl)-3,5-difluorophenyl]-2-oxo-5-oxazolidinecarboxamide]
	2 µg/mL (≈ 6.26 µM)	NC(=O)[C@H]1CN(c2ccc(N3C=CC(=O)CC3)c(F)c2)C(=O)O1 [Example 69, (5R)-3-[4-(4-Oxo-3,4-dihydro-1(2H)-pyridinyl)-3-fluorophenyl]-2-oxo-5-oxazolidinecarboxamide]
	1 µg/mL (≈ 2.99 µM)	NC(=O)[C@H]1CN(c2ccc(N3C=CC(=NO)CC3)c(F)c2)C(=O)O1 (racemic) [Example 79, (5R)-3-[4-[3,4-Dihydro-4-(hydroxyimino)-1(2H)-pyridinyl]-3-fluorophenyl]-2-oxo-5-oxazolidinecarboxamide]
	2 µg/mL (≈ 6 µM)	CNC(=O)[C@H]1CN(c2ccc(N3C=CC(=O)CC3)c(F)c2)C(=O)O1 [Example 70, (5R)-N-Methyl-3-[4-(4-oxo-3,4-dihydro-1(2H)-pyridinyl)-3-fluorophenyl]-2-oxo-5-oxazolidinecarboxamide]
